Patent US8168212B2, “Topical compositions comprising non-proteogenic amino acids and methods of treating skin” (Avon Products, Inc, priority 2007, dated 2012)

Columns and labels:
β1 integrin = test: Whole cell ELISA of β1 integrin expression in human dermal fibroblasts; format: cell-based; details: 0.01% (w/v), 24 hours
Experimental: Cell culture: Human dermal fibroblasts (Cascade Biologics) were cultured in growth medium (DMEM, 5% FBS, 1% L-Glut, and 1% antibiotics) overnight in 60 mm dishes at 3.5×10^5 cells/ml. Cells were treated with test active or vehicle control diluted in growth medium and incubated for 24 hours at 37° C.
Whole cell ELISA: A B1 integrin kit from Chemicon International was used to assay the expression of B1 integrin on the cell surface following treatment with L-4 thiazolylalanine Medium was aspirated and plates were incubated at 37° C. with Cell Dissociation Buffer (provided with the kit) for 20-25 minutes, cells were centrifuged and resuspended in DMEM without supplements. 100 μl of the cell suspension was added to microtiter plates precoated with a murine anti-human β1 antibody (Chemicon International) that had been blocked for non-specific binding, and the plates incubated at 37° C. for 2 h. Adherent cells were quantitated by a cell staining kit (Chemicon International) according to manufacturer's instructions. Briefly, plates were washed in PBS and adherent cells stained by incubation for 5 min. at room temperature in the kit staining solution. […] Extraction buffer was then added to each well and the plate read at 570 nm on a spectrophotometer.
The percent change in β1 integrin expression was calculated according to the formula: […]

fibronectin = test: Competitive inhibition ELISA of fibronectin in conditioned media of human dermal fibroblasts; format: cell-based; details: 72 hours, P < 0.05
Experimental: Cell culture: Human dermal fibroblasts (Cascade Biologics) were cultured in 12-well tissue culture plates in growth medium (DMEM, 5% FBS, 1% L-Glut, and 1% antibiotics) and incubated for 24 hours at 37° C. Cells treated with test active diluted in growth medium and incubated for 72 hours at 37° C., after which conditioned media was collected and assayed for the presence of fibronectin. […].
Competitive inhibition ELISA: The presence of fibronectin in the test samples was assayed by a competitive ELISA kit (Chemicon International). Briefly, test and control samples of conditioned media were incubated with a HRP-conjugated, rabbit polyclonal anti-human fibronectin antibody at room temperature for about 10 minutes. The sample/antibody mixture was then transferred to a microtiter plate precoated with a standard amount of human fibronectin that had been blocked for non-specific binding. The plate was incubated for one hour at room temperature, followed by a PBS wash and detection of bound antibody (i.e., detection of bound HRP) by routine methods known in the art. The amount of bound antibody is inversely proportional to the amount of fibronectin in the sample.
The percent change in fibronectin expression due to L-4 Thiazolylalanine treatment was calculated according to the formula: […]

human skin = test: Human clinical patch study, histology of skin samples (Trichrome collagen and Alcian blue GAG staining); format: in vivo; details: 0.01% solution, topical semi-occlusive patch on outer forearm, 15 applications
Experimental: In order to ascertain the effect of L-4 thiazolylalanine on collagen levels in human skin in vivo, a test was conducted on about 25 women aged 35-65 years. This human clinical study was approved by an Institutional Review Board and informed consent from the subjects was obtained prior to commencement of the study. The study was conducted in accordance with Title 21 of the Code of Federal Regulations, parts 50 and 56.
A solution of 0.01% L-4 Thiazolylalanine was made up in a vehicle of Propylene glycol:Ethanol:Water at a ratio of 70:20:10. The experimental design of the test was as follows: Thiazolylalanine solution or the vehicle solution without thiazolylalanine was applied to the outer forearm on a 2×2 area of skin (@2 mg/cm2) under a semi-occlusive patch for 24 hours, after which the patch was removed and a fresh patch was applied. This was repeated for 5 days (Monday-Friday), then subjects were rested for the weekend. Patch application was continued in the same manner for the next two weeks, for a total of 15 applications. […] The intensity of the collagen and GAG staining was assessed visually under the microscope. […]

calcineurin = test: Ex-vivo DiFMUP phosphatase assay of calcineurin activity; format: biochemical
Experimental: Ex-vivo phosphatase assay: The modulation of calcineurin activity was monitored using a DiFMUP (6,8-difluoro-7-hydroxy-4-methylcoumarin phosphate) phosphatase assay well characterized in the art (see, e.g., Wegner et al., 2007, Methods Mol. Biol. 365:61-69, hereby incorporated by reference in its entirety). Dephosphorylation of DiFMUP leads to the formation of a highly fluorescent and stable product: […].
Varying concentrations of L-4 Thiazolylalanine were added to a reaction buffer consisting of 50 mM Tris-HCL, pH 7.4, 0.0125% BSA, 0.1 mM CaCl, 400 U/ml calmodulin and 1 mM NiCl. The L-4 Thiazolylalanine/reaction buffer mixture was incubated at 37° C. for 30 min. DiFMU substrate was then added to a concentration of 10 μM, and the mixture returned to 37° C. incubation for a further 15 min. Fluorescence intensity was determined on a Spectrofluorometer.

[1] = tested on: LOXL1 regulatory elements (promoter region of the LOXL1 gene); test: LOXL1 promoter luciferase-reporter assay in transfected fibrosarcoma cells; format: cell-based, human; details: 1 μg/ml, 24 h, HTI080 cells, triplicate tests, p<0.05
From the text: Vector construction, transfection and expression: The promoter region of the LOXL1 gene was isolated and cloned into the pGL3 Luciferase reporter plasmid (Promega) by standard methods known in the art and according to manufacturer's instructions. The LOXL1/pGL3 vector and the control vector pRL-NULL (Promega), containing no regulatory elements, were contransfected into the human fibrosarcoma line HTI080 using LipofectAMINE™ LTX Reagent (Invitrogen) according to manufacturer's directions.
Transfected cells were allowed to recover for 24 h. The culture medium was then replaced with fresh medium containing various concentrations of L-4 Thiazolylalanine, and the transfected cells cultured for an additional 24 h.
The cultures were subsequently washed with PBS and exposed to 100 μl cell lysis buffer/25 cm^2 culture area and gently shaken at room temperature for 30 min. The culture flasks containing the cell lysate were then immediately placed at −80° C.
The activity of the reporter gene, firefly luciferase, was determined according to the manufacturer's instructions (Dual-Luciferase® Reporter Assay System, Promega). Briefly, the activity of the reporter gene is determined relative to that of a control vector encoding a second luciferase gene, that from Renilla reniformis. […]

CGRP = CGRP enzyme immunoassay of conditioned medium of PC-12 cells; format: cell-based, rat; details: 0.01%, 24 h, p<0.05
Experimental: Cell culture: PC-12 cells were cultured in FK12 medium supplemented with nerve growth factor according to routine methods known in the art. PC12 cells are derived from a rat pheochromocytoma and terminally differentiate on exposure to nerve growth factor. Once the cells begin to differentiate, they express CGRP. Cultures were incubated in medium containing L-4 Thiazolylalanine for another 24 h. after which conditioned medium was collected and assayed for the presence of CGRP.
CGRP Immunoassay: The presence of CGRP in the test samples was assayed by a sandwich ELISA immunoassay kit. Briefly, test and control samples of conditioned media are mixed with an anti-CGRP antibody conjugated to acetylcholinesterase (the “tracer antibody”), and the mixtures added to plates pre-coated with a monoclonal anti-CGRP antibody (binding to a different epitope of CGRP than the tracer antibody) that had been blocked for non-specific binding. The samples were incubated in the plates and the plates washed and the bound acetylcholinesterase activity determined using Ellman's reagent according to routine methods known in the art. The absorbance of the reagent is directly proportional to the concentration of CGRP in the sample.
The percent change in CGRP expression due to L-4 Thiazolylalanine treatment was calculated according to the formula: […]

N[C@@H](Cc1cscn1)C(=O)O [L-4 Thiazolylalanine, L-4-thiazolylalanine]
increase in the expression of B1 integrin (β1 integrin): 225%
Percent Change in fibronectin expression (fibronectin; Concentration 0.00001%): 54.34% (P < 0.05)
Percent Change in fibronectin expression (fibronectin; Concentration 0.0001%): 31.03% (P < 0.05)
Percent Change in fibronectin expression (fibronectin; Concentration 0.001%): 36.11% (P < 0.05)
subjects with an increase in GAG staining relative to skin treated with the vehicle (human skin; 13/21 subjects): 62%
subjects with increased collagen staining in treated sites versus vehicle treated site (human skin; 18/21 subjects): 86%
increase of calcineurin activity (calcineurin; 0.0001% weight/volume (lowest concentration tested)): 6%
decrease of calcineurin activity (calcineurin; 0.001% concentration): 11%
decrease of calcineurin activity (calcineurin; 0.01% concentration): 63%
IC-50 (calcineurin activity), estimated (calcineurin; estimated): ~0.064%
increase in expression of the reporter gene [1]: 57%
increase in expression of CGRP (CGRP): 69.93%
